Results from patent US20040248877A1, “Polycyclic diazodioxide-based Bcl-2 protein antagonists and use thereof” (priority 2003, published 2004).
Like-named read-outs stand apart in the source and are kept apart here.

Experiments:
Bcl-XL = Bcl-XL (Homo sapiens, UniProt Q07817); details: cited from earlier work
cell = cell line not specified; cited from earlier work
Bcl-2 and Bcl XL = details: cited from earlier work
[1] = tested on: A549 human lung cells expressing low Bcl-2 and high Bcl-XL levels; assay: Acute cytotoxicity (apoptotic activity), Alamar Blue viability; type: cell-based
Experimental: (§1) The biological activity of the compounds provided herein were assessed in cellular system by the method similar to the one described by Amundson et al. (Amundson, S. A. et al, Cancer Research 2000, 60, 6101-6110), which is incorporated herein by reference in its entirety. The compounds were tested for acute cytotoxicity (apoptotic activity) using two human cancer cell lines expressing high levels of either Bcl-2 or Bcl-XL. HL60, human leukemic cells expressing high Bcl-2 and low Bcl-XL levels, and A549 human lung cells expressing low Bcl-2 and high Bcl-XL levels, were incubated with the compounds at concentrations between 0.5 and 1000 μg/mL for 4 hours at 37° C., 5% CO2. The number of viable cells were measured by mitochondrial transformation of Alamar Blue to a fluorescent dye. LC50 values for each test compound and controls are provided in the individual examples that follow.
(§2) The compounds provided herein were tested for acute cytoxicity (apoptotic activity) using two human cancer cell lines expressing high levels of either Bcl-2 or Bcl-XL. HL-60 cells expressing high Bcl-2 and low Bcl-XL levels, and A549 human lung cells expressing low Bcl-2 and high Bcl-XL levels (Amundson, S. A. et al. Cancer Research 2000, 60, 6101-6110) were incubated with the compounds at concentrations between […] for 4 hours at 37° C., 5% CO2. The number of viable cells were measured my mitochondrial transformation of Alamar Blue to a fluorescent dye. As negative controls, the compounds were tested against the cell lines with low levels of Bcl-2 expression, viz., MDA-453 cells (Enyedy, I. J. et al. J. Med. Chem. 2001, 44, 4313-4324). LC50 values for each compound and controls were determined.

[2] = tested on: HL60, human leukemic cells expressing high Bcl-2 and low Bcl-XL levels; assay: as above; type: cell-based
Experimental: as §1, §2

[3] = protein not specified, read-out: IC50 (FP)
[4] = Homo sapiens, A549, 4 h, read-out: LC 50 (μM) A549
[5] = Homo sapiens, HL-60, 4 h, read-out: LC 50 (μM) HL-60

Sequence of Bcl-XL (Q07817 whole entry, species assumed): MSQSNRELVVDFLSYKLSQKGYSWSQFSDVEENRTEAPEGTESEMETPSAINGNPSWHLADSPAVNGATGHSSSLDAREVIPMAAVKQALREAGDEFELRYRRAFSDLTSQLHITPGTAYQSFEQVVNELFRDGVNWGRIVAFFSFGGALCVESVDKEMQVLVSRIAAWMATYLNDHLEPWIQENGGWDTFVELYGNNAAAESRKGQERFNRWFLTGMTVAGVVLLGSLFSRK

In the case of Cc1cc2c(C(C)C)c(O)c(O)c(C=O)c2c(O)c1-c1c(C)cc2c(C(C)C)c(O)c(O)c(C=O)c2c1O [Compound 1, Gossypol], the IC50 (Bcl-XL) is listed as 0.4 µM and the IC50 (cell) is listed as 1.5 µM.

For CCCC[C@H]1C(=O)O[C@H](C)[C@H](NC(=O)c2cccc(NC=O)c2O)C(=O)O[C@@H](C)[C@@H]1OC(=O)CC(C)C [Compound 2, Antimycin], the IC50 (Bcl-2 and Bcl XL; [3]) is given as 2.5 µM and the IC50 (cell) is given as 1.2 µM.

For CCOC(=O)OC(C#N)C1C=C(N)Oc2ccc(Br)cc21 (stereo not shown) [Compound 4], the IC50 (Bcl-2 and Bcl XL; [3]) is given as 9 µM, the CC50 [1, 4] is given as over 200 µM and the CC50 [2, 5] is given as over 200 µM. For the same compound, the IC50 (cell) was 18 µM.

For CC(C)C(C(=O)O)C1C(=O)/C(=C/c2ccc(Br)cc2)SC1=S (stereo not shown) [Compound 5], the IC50 (Bcl-2 and Bcl XL; [3]) is listed as 2.4 µM, the CC50 [1, 4] is listed as over 200 µM and the CC50 [2, 5] is listed as over 200 µM. For the same compound, the IC50 (cell) was about 90 µM.

For O=C(Nc1cc(S(=O)(=O)c2ccc(Cl)cc2)ccc1Cl)c1cc(Cl)cc(I)c1O [Compound 6], the IC50 (Bcl-2 and Bcl XL; [3]) is listed as 3.3 µM, the CC50 [1, 4] is listed as over 200 µM and the CC50 [2, 5] is listed as over 200 µM. For the same compound, the IC50 (cell) was about 30 µM.

In the case of CC(C)Cc1cc(-c2ccc(-c3ccc(OCC(=O)O)c(CC(C)C)c3)c(Cc3cccc4ccccc34)c2)ccc1CCC(=O)O [Compound 7], the IC50 (Bcl-2 and Bcl XL; Bcl-2 antagonist designed by molecular modeling, read-out: IC50 value) is given as 0.114 µM, the CC50 [1, 4] is given as over 200 µM and the CC50 [2, 5] is given as over 200 µM.

Compound [O-][N+]1=[N+]([O-])c2ccc(OCC(F)(F)F)cc2CCc2cc(OCC(F)(F)F)ccc21 [Example 1, dibenzo[c,g][1,2]diazocine, 11,12-dihydro-2,9-bis(2,2,2-trifluoroethoxy)-, 5,6-dioxide] has a CC50 ([1]; Homo sapiens, A549, 4 hours at 37° C., read-out: LC50 value in A549 cell line) of 80.9 µM and a CC50 ([2]; Homo sapiens, HL-60, 4 hours at 37° C., read-out: LC50 value in HL-60 cell line) of 26.1 µM.

Compound [O-][N+]1=[N+]([O-])c2ccc(OC(F)F)cc2CCc2cc(OC(F)F)ccc21 [Example 2, dibenzo[c,g][1,2]diazocine, 2,9-bis(difluoromethoxy)-11,12-dihydro-5,6-dioxide] has a CC50 [1] of 298 µM and a CC50 [2] of 18.5 µM.

[O-][n+]1nc2ccccc2c2ccccc21 [compound 9] showed a CC50 [1, 4] of over 200 µM and a CC50 [2, 5] of over 200 µM.

For [O-]/[N+]1=N/c2ccc(F)cc2CCc2cc(F)ccc21 [compound 13], the CC50 [1, 4] was over 200 µM and the CC50 [2, 5] was over 200 µM.

For [O-]/[N+]1=N/c2ccc(OCc3ccccc3)cc2CCc2cc(OCc3ccccc3)ccc21 [compound 15], the CC50 [1, 4] was over 200 µM and the CC50 [2, 5] was over 200 µM.

Work on [O-]/[N+]1=N/c2ccc(OC(F)F)cc2CCc2cc(OC(F)F)ccc21 [compound 16] yielded a CC50 [1, 4] of over 200 µM and a CC50 [2, 5] of over 200 µM.

For [O-]/[N+]1=N/c2ccc(Oc3ccc(C(F)(F)F)cn3)cc2CCc2cc(Oc3ccc(C(F)(F)F)cn3)ccc21 [compound 18], the CC50 [1, 4] was over 200 µM and the CC50 [2, 5] was over 200 µM.

For [O-]/[N+]1=N/c2ccc(Oc3ccc(C(F)(F)F)cn3)cc2CCc2ccccc21 [compound 19], the CC50 [1, 4] was over 200 µM and the CC50 [2, 5] was over 200 µM.

CCS(=O)(=O)c1ccc2c(c1)CCc1cc(S(=O)(=O)CC)ccc1/[N+]([O-])=N\2 [compound 21] showed a CC50 [1, 4] of over 200 µM and a CC50 [2, 5] of over 200 µM.
